According to PMC9000710, “Synthesis and Hemostatic Activity of New Amide Derivatives” (Molecules, 2022):
Entries after “also recorded” stand apart in the source; their conditions may differ.

Legend:
human blood plasma [1] = experiment: Thrombin time (TT) clotting assay; type: biochemical
Procedure: (§1) Human blood plasma was isolated from fresh buffy coats (collected onto the citrate-dextrose solution—ACD) purchased from the Regional Centre of Blood Donation and Blood Treatment in Lodz, Poland. In the isolation procedure, the buffy coats (60 mL units) were divided into volumes of 10 mL and centrifuged (4000 rpm/15 min) in 15 mL tubes. Next, 1 mL solutions of each amide 1–8 were prepared in distilled water at concentrations of 10, 25, and 50 mg/L. Then, 450 μL of plasma and 50 μL of each amide at the tested concentrations were placed into 1.5 mL vials. The vials were vortexed (Vortex Biosan V-1 plus), incubated at 37 °C on a thermoblock (Dry Block Thermostat Biosan TDB-120), and analyzed using a Kselmed K-3002 OPTIC coagulometer (Grudziądz, Poland), based on the manufacturer’s protocols (described below). The control sample was native blood plasma, untreated with any of the examined substances.
Both 100 μL of control plasma and plasma samples treated with the amides were transferred to measuring cuvettes, which were placed in the thermoblock module (37 °C) of the coagulometer (KSELMED K-3002 Optic). Then, 100 μL of thrombin solution (4.5 U/mL, in 0.9% NaCl; Biomed, Lublin, Poland) was added to the cuvette. Measurements were started immediately.

human blood plasma [2] = experiment: Activated partial thromboplastin time (aPTT) clotting assay; type: biochemical
Procedure: as §1
Fifty microliters of control plasma and plasma samples treated with the amides were transferred to measuring cuvettes and placed in the thermoblock module (37 °C) of the coagulometer (KSELMED, K-3002 Optic). Then, 50 μL of Dia-APTT reagent (DIAGON Kft. Hungary; cat. no. 72048) was added. The mixture was incubated for 180 s at 37 °C. Finally, 50 μL of reagent Dia-CaCl2 (DIAGON Kft. Hungary; cat. no. 41192) was added. Measurements were started immediately.

[3] = Hemolysis assay (stability of erythrocytes); type: cell-based, human; conditions: male, human, heparinized whole blood diluted with saline (erythrocytes)
Procedure: (§2) Heparinized whole blood was used from a healthy volunteer. The whole blood (10 mL) was diluted with saline solution (90 mL). For each UV-Vis measurement, 2.5 mL of diluted blood was used. For each blood sample, 1 mL of a saline solution containing hydrochlorides 1–8 at concentrations of 5, 50, and 500 mg/L was added. As a control were used blood samples with the addition of 1% solution of DMSO in saline and 1% solution of SDS in saline. In all cases, the measurements were repeated twice for each concentration. […] The cells were centrifuged, and the absorbance of the supernatant, which contained plasma and lysed erythrocytes, was measured at 540 nm. The percentage of lysis was calculated from a standard curve of lysed erythrocytes treated with SDS [52].

erythrocytes = experiment: Hemolysis assay (stability of erythrocytes); type: cell-based, human
Procedure: as §2

human blood plasma [4] = experiment: Prothrombin time (PT) clotting assay; type: biochemical
Procedure: as §1
Fifty microliters of control plasma and plasma samples treated with the amides were transferred to measuring cuvettes and placed in the thermoblock module (37 °C) of a coagulometer (KSELMED, K-3002 Optic). Then, 100 μL of Dia-PT reagent (DIAGON Kft. Hungary; cat. no. 81100) was added. Measurements were started immediately.

human blood plasma [5] = experiment: Clot formation and fibrinolysis (CFF) assay; type: biochemical; conditions: for Amax (maximum of fibrin clot absorbance at 360 nm) / VmaxC (of Fibrin Polymerization) / VmaxF (of Fibrin Clot Lysis): control plasma assumed as 100%, mean ± SD, n = 5–7; for effect on fibrin polymerization (VmaxC) in words: tested at 10, 25, 50 mg/L
Excerpt: The CFF assay enables analysis of both the blood plasma coagulation process and fibrinolysis efficiency. The thrombin enzyme in the reagent mixture initiates blood plasma fibrinogen polymerization, leading to an increase in absorbance in the sample until the maximal absorbance (Amax) is attained. The fibrinolytic activity of blood plasma is induced by the tissue-type plasminogen activator (t-PA). The activation of fibrinolysis in the tested samples leads to fibrin clot degradation and decreases the absorbance to the baseline.
Figure 11 An exemplary curve of blood plasma coagulation and clot lysis recorded during the clot formation and fibrinolysis (CFF) assay. The first step in the CFF test involves activation of the blood plasma coagulation cascade and fibrin clot formation (1). It is characterized by the maximal velocity of the fibrin polymerization parameter (VmaxC). The maximal absorbance (Amax) peak corresponds to the fibrin stabilization phase and is an indicator of fibrin clot thickness (2). The third step of the CFF assay covers the activation of fibrinolytic mechanisms and fibrin clot degradation (3) and is described by the maximal velocity of clot lysis (VmaxF).
Thrombin was purchased from BioMed (Lublin, Poland). A tissue-type plasminogen activator (Actilyse®) was purchased from Boehringer Ingelheim, Ingelheim am Rhein, Germany. Kinetic measurements were executed using a SpectrostarNano microplate spectrophotometer (BMG LabTech, Ortenberg, Germany).
Measurements were performed using a kinetic model, as described in our previous work. Briefly, blood plasma was preincubated with the examined substances (at final concentrations of 10, 25, and 50 mg/L) for 15 min at 37 °C. Then, 100 μL of blood plasma was added to microtiter plate wells, which was followed by 200 μL of the reagent mixture (0.75 U/mL thrombin, 225 ng/mL t-PA and 7.5 mM CaCl2) suspended in tris-buffered saline (0.05 M TBS, 0.9% NaCl; pH 7.4). Measurements of absorbance changes were started immediately and continued for 60 min at 37 °C, λ = 360 nm. The following parameters were used to determine the effects of the examined substances on the coagulation and fibrinolytic properties of the blood plasma: the maximal velocity of fibrinogen polymerization (VmaxC), which is an indicator of the plasma coagulation efficiency; the maximal absorbance (Amax), which is an indicator of the fibrin clot stabilization and its thickness; the maximal velocity of clot lysis (VmaxF), which is an indicator of blood plasma fibrinolytic activity.

Row | Structure (SMILES) | TT Time [% of Control] (human blood plasma [1]; c 10 mg/L) | TT Time [% of Control] (human blood plasma [1]; c 25 mg/L) | TT Time [% of Control] (human blood plasma [1]; c 50 mg/L) | aPTT Time [% of Control] (human blood plasma [2]; c 10 mg/L) | aPTT Time [% of Control] (human blood plasma [2]; c 25 mg/L) | aPTT Time [% of Control] (human blood plasma [2]; c 50 mg/L) | hemolysis at 45 min, 5 mg/L ([3]; c 5 mg/L, 45 min) | hemolysis at 45 min, 50 mg/L ([3]; c 50 mg/L, 45 min) | hemolysis at 120 min, 50 mg/L ([3]; c 50 mg/L, 120 min) | hemolysis at 240 min, 50 mg/L ([3]; c 50 mg/L, 240 min) | PT Time [% of Control] (human blood plasma [4]; c 10 mg/L) | PT Time [% of Control] (human blood plasma [4]; c 25 mg/L) | PT Time [% of Control] (human blood plasma [4]; c 50 mg/L) | Amax (maximum of fibrin clot absorbance at 360 nm) (human blood plasma [5]; 10 mg/L) | VmaxC (of Fibrin Polymerization) (human blood plasma [5]; 10 mg/L) | VmaxF (of Fibrin Clot Lysis) (human blood plasma [5]; 10 mg/L) | Amax (maximum of fibrin clot absorbance at 360 nm) (human blood plasma [5]; 25 mg/L) | VmaxC (of Fibrin Polymerization) (human blood plasma [5]; 25 mg/L) | VmaxF (of Fibrin Clot Lysis) (human blood plasma [5]; 25 mg/L) | Amax (maximum of fibrin clot absorbance at 360 nm) (human blood plasma [5]; 50 mg/L) | other results
1 | Cl.NCCCCCC(=O)NCC(=O)O [Amide 1, 2-(6-Aminohexanamido)acetic acid hydrochloride] | 95.9 ± 6.3 % of Control | 96.1 ± 6.8 % of Control | 94.3 ± 8.3 % of Control | 108.3 ± 11.9 % of Control | 105.1 ± 7.7 % of Control | 101.9 ± 9.3 % of Control | 0% | 0.5% | 0.18% | 0.35% | 96.3 ± 2.5 % of Control | 95.0 ± 2.9 % of Control | 95.7 ± 2.2 % of Control | 105.98 ± 4.31 % | 106.12 ± 4.28 % | 99.08 ± 9.93% | 107.24 ± 8.91% | 105.66 ± 6.27% | 87.32 ± 20.27% | 104.62 ± 9.46% | aPTT, effect versus control in words (human blood plasma [2]; tested at 10, 25, 50 mg/L): not statistically significant; hemolysis at 120 min, 500 mg/L ([3]; c 500 mg/L, 120 min): 0.56%; hemolysis at 240 min, 500 mg/L ([3]; c 500 mg/L, 240 min): 0.42%; Hemolysis [%] (erythrocytes; c 500 mg/L, 45 min): 0.27%; Hemolysis [%] (erythrocytes; c 500 mg/L, 120 min): 0.59%; Hemolysis [%] (erythrocytes; c 500 mg/L, 240 min): 0.58%; prothrombin time, effect versus control in words (human blood plasma [4]; at all concentrations (10, 25, 50 mg/L)): significantly decreased; fibrinolytic activity (VmaxF), effect in words (human blood plasma [5]; 50 µg/mL): no statistically significant effect; VmaxC (of Fibrin Polymerization) (human blood plasma [5]; 50 mg/L): 104.20 ± 3.85 %; VmaxF (of Fibrin Clot Lysis) (human blood plasma [5]; 50 mg/L): 95.58 ± 15.97%; effect on fibrin polymerization (VmaxC) in words (human blood plasma [5]): Mild pro-coagulant effects
2 | Cl.NCC(=O)NCCCCCC(=O)O [Amide 8, 6-(2-Aminoacetamido)hexanoic acid hydrochloride] | 100.0 ± 7.0 % of Control | 94.3 ± 1.3 % of Control | 92.4 ± 5.2 % of Control | 95.1 ± 7.5 % of Control | 97.7 ± 5.9 % of Control | 95.2 ± 7.3 % of Control | 0.08% | 0.44% | 0.71% | 0.36% | 93.0 ± 2.2 % of Control | 95.5 ± 4.3 % of Control | 97.2 ± 3.2 % of Control | 104.83 ± 2.83 % | 101.96 ± 6.62% | 82.96 ± 12.49 % | 100.18 ± 3.77% | 100.98 ± 6.60% | 96.07 ± 14.56% | 108.64 ± 11.94% | TT, effect versus control in words (human blood plasma [1]; c = 25, and 50 mg/L): shorter TT than the control sample; melting point: 120 to 123 °C; hemolysis at 120 min, 5 mg/L ([3]; c 5 mg/L, 120 min): 0.74%; hemolysis at 45 min, 50 mg/L ([3]; c 50 mg/L as printed in the third concentration block of amides 7 and 8, 45 min): 0%; hemolysis at 120 min, 50 mg/L ([3]; c 50 mg/L as printed in the third concentration block of amides 7 and 8, 120 min): 0.47%; hemolysis at 240 min, 50 mg/L ([3]; c 50 mg/L as printed in the third concentration block of amides 7 and 8, 240 min): 0.37%; Hemolysis [%] (erythrocytes; c 50 mg/L, 240 min): 0.3%; prothrombin time, effect versus control in words (human blood plasma [4]; concentration not specified (10, 25, 50 mg/L tested)): slightly but statistically significantly reduced; prothrombin time, effect versus control in words (human blood plasma [4]; lowest concentration (10 mg/L)): fell only slightly; also recorded: most effectively lowered; VmaxC (of Fibrin Polymerization) (human blood plasma [5]; 50 mg/L): 105.67 ± 8.34%; VmaxF (of Fibrin Clot Lysis) (human blood plasma [5]; 50 mg/L): 66.90 ± 23.22 %; effect on fibrin polymerization (VmaxC) in words (human blood plasma [5]): did not influence
